Data from patent US20090105189A1, “METHODS AND COMPOSITIONS FOR AMELIORATING OR INHIBITING DECLINE IN MEMORY OR INTELLIGENCE OR IMPROVING SAME” (priority 2006, published 2009).

Experiments:
[1] = Brain CDP-choline levels after oral UMP in gerbils; type: in vivo, gerbil; conditions: UMP 1 mmole/kg by gavage, for 30 min after administration
Protocol: Brain tissue or cells was dissolved in methanol/chloroform (1:2 vol/vol), centrifuged, and the aqueous phase was dried under vacuum, resuspended in 100-200 μL water and separated by HPLC on an ion-exchange column (Alltech Hypersil APS-2, 5 μM, 250×4.6 mm). CDP-choline was eluted with a linear gradient of NaH2PO4 buffers A (1.75 mM NaH2PO4, pH 2.9) and B (500 mM, pH 4.5), which allowed resolution of CDP-choline from closely co-eluting substances such as UMP over 40 min. The retention time for CDP-choline was 9.5 min. Individual nucleotide peaks were detected by UV absorption at […], and were identified by comparison with the positions of authentic standards, as well as by the addition of nucleotide standards to selected samples.

[2] = test system: Aging rats; assay: Morris water maze in aging rats on UMP diet; type: in vivo, rat; conditions: aging rats 18 months, 2.5% diet, six weeks
Text: Aging rats (I 8 months, 500 g) were fed a control diet or a diet containing 2.5% UMP diets for six weeks. They were then shown a hidden platform in a six-foot diameter pool of water, placed somewhere in each of the four quadrants of the pool in turn, and were allowed 90 seconds in each trial to attempt to relocate the platform by swimming, and the swimming time “mean escape latency” recorded. The set of four trials was repeated on each of four consecutive days. The platform was in the same place each day. This test, known as the Morris water maze, is an indicator of spatial memory.

[3] = test system: gerbils; assay: Working memory and reference memory assay (modified radial arm maze) in gerbils; type: in vivo, gerbil; conditions: 0.1% UMP diet, four weeks
Text: Groups of ten gerbils fed control or 0.1% UMP diet for four weeks and trained to successfully find all of the food pellets as described above were then given a modified test, in which only two arms of the maze (but always the same two) contained food pellet rewards. In this test, a working memory error is one in which a gerbil revisits an arm from which it has already taken the pellet that day.

[4] = test system: gerbils; assay: Food pellet learning assay (radial arm maze) in gerbils; type: in vivo, gerbil; conditions: young adult gerbils, 0.1, 0.5 or 2.5% UMP chow, three weeks
Protocol: Male young adult gerbils fed control or UMP-containing chow (0, 0.1, 0.5 or 2.5%) ad lib for three weeks were tested in a radial arm maze, consisting of a central chamber with four branches primed with a small food pellet at the end of each. Before testing, animals were fasted overnight; each animal was then placed in the central chamber and allowed up to 180 seconds to find all of the pellets. A shorter time required to find the pellets is indicative of improved learning and spatial memory.

[5] = test system: Sprague Dawley rats; assay: Hidden platform water maze and probe test in EC and IC rats on UMP diet; type: in vivo, rat; conditions: for Rate of acquisition of hidden platform water maze task: 0.1% UMP-2Na+ diet 3 months
Protocol: (§1) Behavioral training was carried out between 10:00 AM-2:00 PM, in a blinded manner. Rats received a 4-d training session consisting of 4 trials (i.e., swims) per day to locate the hidden platform (1.5 cm below the water surface), which remained in the same position across trials for individual animals (i.e. within one of 4 quadrants). On each trial the animal was placed into the tank facing the wall at one of 4 designated start points (N, S, E, and W) and allowed to escape onto the hidden platform. A different starting point was used on each trial such that each starting point was used once each day. […] After mounting the platform, rats remained on the platform for 20 seconds. Following each trial, animals were removed from the maze and placed in a holding cage for a 30 second inter-trial interval (ITI). The latency to mount the escape platform was used as a measure of task acquisition.
(§2) On day 5, the rats were given a probe test. For this, the platform was removed and the swim path and time spent searching in the quadrant of the pool that previously contained the platform were measured over 60 s. This provides a measurement for the retention of spatial memory and indicates whether a spatial strategy was used during hidden platform training.

[6] = Plasma uridine levels after oral UMP in healthy human subjects; type: in vivo; conditions: humans, oral UMP 500, 1000 or 2000 mg; baseline and 1, 2, 4, 8 hr
Protocol: 1-milliliter (mL) samples of heparinized plasma were spiked with 1 μg fluoro-uridine for use as an internal standard, then deproteinized by adding methanol (5 mL).
All steps were performed at 4° C. Boronate affinity columns (Affigel-601, Bio-Rad) were primed with two 5-mL ammonium acetate washes, samples were applied, and columns were washed again with ammonium acetate, after which the nucleosides were eluted with 0.1 N formic acid (7 mL). Eluates were lyophilized, then reconstituted in 100 μL water for HPLC analysis.
HPLC analysis was performed using a Beckman System Gold apparatus (Beckman Instruments) equipped with a Rainin Dynamax Microsorb C18 column (3 μm packing; 4.6×100 mm) at room temperature. The standard HPLC method is described in Lopez-Coviella et al, (J. Neurochem 65: 889-894, 1995). For modified HPLC, an isocratic elution buffer was used containing 0.004 N potassium phosphate buffer (pH 5.8) and 0.1% methanol instead of formic acid, flowing at 1 mL/min and heated to 35°.
Eight healthy subjects (5 male, 3 female, 27-67 years old) were instructed to fast overnight and given sequentially increasing doses (500, 1000, and 2000 mg) of disodium UMP (Numico, Wageningen, NL) at 7-8 AM on each of three days, separated by at least a three-day washout period. All subjects were given lunch. Blood samples were drawn over an eight-hour period into heparinized tubes. […]

[7] = test system: Sprague Dawley rats; assay: Visible platform water maze task in EC and IC rats on UMP diet; type: in vivo, rat; conditions: UMP-supplemented diet
Text: Four starting positions (north, south, east, west) were spaced around the perimeter of the tank, dividing the pool into four equal quadrants. For the visible platform version of the water maze, a white rubber ball (8 cm in diameter) was attached to the top of the submerged platform and protruded above the water surface. The platform could be used as a step to mount the ball to escape the water. A video camera was mounted directly above the water maze; this camera was linked to a computer with video tracking software to automatically record the escape latency (time to reach the platform), distance traveled (length of swim path taken to find the platform), and swim speed (HVS Image Ltd; Buckingham, UK). One week after completion of the 4-day/4 trials per day spatial training task, the rats from the above Example received 4 training sessions consisting of 4 trials (i.e., swims) per day. On each trial the animal was placed into the tank facing the wall at one of four designated start points (N, S, E, and W) and allowed to escape onto the visibly cued platform. A different starting point was used on each trial such that each starting point was used each day. In addition, the visible escape platform was placed in a different quadrant on each trial such that each of the four quadrants contained the escape platform once each day. […]

[8] = test system: Fischer 344 rats; assay: In vivo microdialysis of striatal neurotransmitter release in aged rats on UMP diet; parameters: species or system rat; conditions: for K+-evoked striatal DA release (basal = 100%): control 283±9%
[9] = Body weight of rats on UMP-supplemented diet; type: in vivo, rat
Text: Animals were weighed weekly to ensure that UMP-treated and untreated rats were eating equivalent amounts of food. […] Also, there was no difference in body weight between the EC and IC groups.

[10] = test system: rats; conditions: EC and IC rats, choline-supplemented vs control diet
Text: (§3) Animals were maintained as described for Example 13. For the first experiment (FIGS. 24-26), male pups were removed at postnatal d 23, separated into small groups, and allowed to acclimatize for 1 week. Pups were assigned to either the […] or IC condition; rats were matched according to body weight at PN day 23. […] Thus rats were fed the diets and were enriched or impoverished from 30-120 d of age.
(§4) The water maze was a black circular tank 1.83 m in diameter and 0.55 m in height, filled with water (25 C) to a depth of 20 cm and located in a room containing several extramaze cues. Four starting positions (N, S, E, and W) were spaced around its perimeter, dividing the pool into 4 equal quadrants. The rectangular clear Plexiglas escape platform used for the spatial task (11×14×19 cm) was submerged at a depth of […]. For the cured version of the water maze, a white rubber ball 8 cm in diameter attached to the top of the submerged platform protruded above the water surface. The platform could be used as a step to mount the ball to escape from the water.

[11] = test system: rats; conditions: IC rats
Protocol: as §1, §2, §3
For the second experiment, 4 groups of IC rats were utilized, as depicted below:
Four diets were prepared containing different amounts of CDP-choline. Mean weekly intakes were monitored for all rats, and the diets were adjusted so that rats would receive 500 mg/kg/d.
as §4

[12] = aged rats, UMP diet 1 week or 6 weeks vs control
[13] = 500 mg/kg/d for 3 mo, 4 d of training

Question: Which results are given for O=c1ccn([C@@H]2O[C@H](COP(=O)([O-])[O-])[C@@H](O)[C@H]2O)c(=O)[nH]1.[Na+].[Na+] [UMP, uridine-5′-monophosphate disodium]?
Answer: Brain CDP-choline levels [1]: rose significantly in a linear fashion; Time required to reach the platform (mean escape latency), Morris water maze [2]: statistically significant reduction in the time required to reach the location of the platform; Reference memory errors [3]: reduced numbers; Working memory errors [3]: reduced numbers; Time required to find the food pellets, radial arm maze [4]: reduced the time required for gerbils to find the pellet in a dose-dependent manner; Rate of acquisition of hidden platform water maze task ([5]; EC rats, vs EC-CONT (P<0.09)): acquired the task at a faster rate than EC-CONT rats; Rate of acquisition of hidden platform water maze task ([5]; IC rats, vs IC-CONT): acquired the task at a significantly faster rate than did IC-CONT rats; Time in the correct quadrant, 60 s probe test ([5]; IC rats, UMP diet, vs IC-CONT): spent significantly more time in the correct quadrant than IC-CONT rats; Plasma uridine levels [6]: increased in response to oral UMP in a dose-dependent fashion; Striatal-based (stimulus-response) memory, visible platform water maze [7]: little or no effect; Basal DA levels in striatal dialysate ([8]; aged rats, 2.5% UMP diet 1 or 6 weeks vs control): did not affect; K+-evoked striatal DA release (basal = 100%) ([8]; aged rats, 2.5% UMP diet 1 week, not significant): 316±15%; K+-evoked striatal DA release (basal = 100%) ([8]; aged rats, 2.5% UMP diet 6 weeks): 341±21%; Basal DOPAC levels in striatal dialysate [8, 12]: no effects; Basal HVA levels in striatal dialysate [8, 12]: no effects; Basal release of acetylcholine in corpus striatum ([8]; rats, dietary UMP): increase the basal release; Mean body weights ([9]; Sprague Dawley EC/IC rats, 0.1% UMP-2Na+ diet, vs control groups): No significant differences in mean body weights; Body weight ([9]; aged Fischer 344 rats, 2.5% UMP-2Na+ diet, 0-6 weeks): neither UMP-diet (vs. control) nor UMP×time interaction affected body weight

Question: For cytidine-diphosphocholine, which “Escape latencies, visible platform task” value [10] is on record?
Answer: No main effects of diet

Question: What about the “Escape latencies of initial trials on last 3 d of spatial training” value ([11]; 500 mg/kg/d for 3 mo) of the same compound?
Answer: restored normal behavior

Question: What about the “Swim time in target quadrant, 60-sec probe test” value ([11]; 500 mg/kg/d for 3 mo) of the same compound?
Answer: restored normal behavior

Question: And the “Distance traveled to find the hidden platform” value [11, 13]?
Answer: restored normal behavior

Question: And the “Escape latencies, hidden platform task” value [11, 13]?
Answer: exhibited normal latencies

Question: What about the “Escape latencies, hidden platform task (second experiment)” value ([11]; high-choline diet for 3 mon vs untreated IC rats) of the same compound?
Answer: different significantly from untreated IC rats

Question: And the “Swim time in target quadrant, 60-sec probe test (second experiment)” value ([11]; high-choline diets for 3 mon)?
Answer: swam for a significantly longer time in the target quadrant
